The values below come from patent US5698571A, “5-HT1F mediated inhibition of neurogenic meningeal extravasation: a method for the treatment of migraine” (Eli Lilly and Company, priority 1994, dated 1997).

As usually defined, the EC50 is the concentration giving half of the maximal effect.

Structures are written as SMILES. Counter-ions that a name gives are not always drawn. Like-named read-outs stand apart in the source and are kept apart here. Bounds are passed on as bounds.

One data set relates to rabbit saphenous vein. The data set can be described thus: Rabbit Saphenous Vein Contraction.
Data set [1] has as its system neuronal protein extravasation. The data set can be described thus: Protein extravasation assay (dura, stimulation of trigeminal ganglion). In kind it is in vivo, guinea pig.
The subject of data set [2] is 5-HT1F receptor. The following applies: Weinshank et al., WO93/14201; cited from earlier work.
For another data set, the target named is T1, 5-HT1F (Homo sapiens, UniProt P30939).
T1 construct: expressed in transfected cells; host or cells: Ltk- cells
The data set can be described thus: Radioligand binding ([3H]5-HT displacement), 5-HT1F.

In a further data set the test system is migraine. The following applies: in vivo; cited from earlier work.
Another data set concerns neurogenic inflammation. The following applies: dose similar to that required to treat acute migraine in humans; cited from earlier work.
For data set [3] the following is noted: in vivo; cited from earlier work.
The conditions of data set [4]: Humphrey et al.; cited from earlier work.
A further data set concerns vasoconstriction. The following applies: Goodman and Gilman; cited from earlier work.
Data set [5] deals with T2, 5-HT1F receptor (Homo sapiens, UniProt P30939).
T2 sequence (P30939 1-366): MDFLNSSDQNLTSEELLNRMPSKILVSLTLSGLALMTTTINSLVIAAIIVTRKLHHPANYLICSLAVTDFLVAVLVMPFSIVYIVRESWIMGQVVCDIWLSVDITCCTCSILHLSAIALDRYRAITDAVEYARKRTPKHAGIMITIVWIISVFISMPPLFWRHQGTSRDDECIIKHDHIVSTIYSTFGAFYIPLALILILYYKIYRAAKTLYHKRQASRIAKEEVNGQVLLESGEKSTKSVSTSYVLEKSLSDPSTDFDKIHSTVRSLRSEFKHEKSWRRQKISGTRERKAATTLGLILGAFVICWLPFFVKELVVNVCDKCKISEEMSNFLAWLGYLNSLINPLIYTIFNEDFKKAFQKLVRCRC
The data set can be described thus: Measurement of cAMP formation: inhibition of forskolin stimulated cAMP in NIH3 T3 cells transfected with the 5-HT1F receptor. The following applies: for agonist character at the 5-HT1F receptor in the cAMP assay: forskolin stimulated cAMP, transfected NIH3 T3 cells. In kind it is cell-based.

The mark [6] stands for this setting: Oryctolagus cuniculus, read-out: Corrected Vasoconstriction EC50.
The mark [7] stands for this setting: Oryctolagus cuniculus; read-out: Rabbit Saphenous Vein Contraction EC50.
The mark [8] stands for this setting: Cavia porcellus, iv, read-out: Inhibition of Protein Extravasation i.v. ID50.
Where [9] appears, read: Oryctolagus cuniculus, read-out: Rabbit Saphenous Vein Contraction (% Max. KCl).
The mark [10] stands for this setting: i.v., 10 minutes before trigeminal ganglion stimulation; dose inhibiting extravasation by 50%.

Consider `CNS(=O)(=O)Cc1ccc2[nH]cc(CCN(C)C)c2c1.O=C(O)CCC(=O)O` [Compound I, 3-[2-(dimethylamino)ethyl]-N-methyl-1H-indole-5-methanesulfonamide butane-1,4-dioate (1:1)], for which the EC50 with rabbit saphenous vein (setting [6]) is 0.0103 µM. In addition, the EC50 with rabbit saphenous vein (setting [7]) was 0.66 µM. For the same compound, the ED50 in [1] (setting [8]) was found to be 2.6e-05 µmol/kg. In addition, the “Inhibition of Protein Extravasation i.v. ID50” value in data set [1] (iv) was 2.6e-08 mmol/kg. Also, the “affinity for the 5-HT1F receptor” value in the data set on 5-HT1F receptor [2] is given as “high affinity”. At 5-HT1F, the “5-HT1F activity (in words)” value is “significant component of 5-HT1F activity”. Moreover, the “efficacy in the treatment of migraine” value with migraine was “effective in the treatment of migraine”. In the data set on neurogenic inflammation, the “blockade of neurogenic inflammation” value is on record as “blocked”. In addition, the “contraindications as products of vasoconstrictive activity” value in data set [3] is “coronary vasospasm, hypertension and angina”. Also, in data set [4], the “agonist at 5-HT1-like receptors, hydrophilicity” value is listed as “hydrophilic agonist at 5-HT-1-like receptors” and the “crossing of the blood-brain barrier” value was “does not cross the blood-brain barrier”.
Regarding `Cn1cc(CCN2CCC(c3c[nH]c4ccc(F)cc34)CC2)cn1` [Compound II, 5-fluoro-3-<1-<2-<1-methyl-1H-pyrazol-4-yl >ethyl>-4-piperidinyl>-1H-indolehydrochloride], the EC50 in the data set with rabbit saphenous vein (Oryctolagus cuniculus; read-out: Corrected Vasoconstriction EC50) was found to be 0.0729 µM; with rabbit saphenous vein (setting [7]), 1 µM. Moreover, the Emax in the data set on rabbit saphenous vein (Oryctolagus cuniculus; read-out: Rabbit Saphenous Vein Contraction (% Max. KCl)) was 13.7%. The ED50 in [1] (Cavia porcellus, iv; read-out: Inhibition of Protein Extravasation i.v. ID50) was determined as 8e-07 µmol/kg. Besides, the “Inhibition of Protein Extravasation i.v. ID50” value in [1] (guinea pig, in vivo, iv) stood at 8e-10 mmol/kg.
In the case of `Oc1ccc2[nH]cc(C3CCNCC3)c2c1` [Compound III, 5-hydroxy-3-(4-piperidinyl)-1-H-indole oxalate], the ED50 in [1] (setting [8]) is 8.9e-06 µmol/kg.
On to `CCN(CC)C1CCc2cccc(Cl)c2C1.Cl` (centres unmarked) [Compound IV, 8-chloro-2-diethylamino-1,2,3,4-tetrahydronaphthalene hydrochloride], for which the EC50 in the data set on rabbit saphenous vein (setting [6]) came to 0.00149 µM; in the data set on rabbit saphenous vein (setting [7]) it was 1 µM. Also, the Emax in the data set with rabbit saphenous vein (setting [9]) amounted to 67.2%. In data set [1] (setting [8]), the ED50 was found to be 0.00012 µmol/kg. Besides, the “Inhibition of Protein Extravasation i.v. ID50” value in [1] (setting [10]) stood at 1.2e-07 mmol/kg. Also, the “5-HT1F activity (in words)” value at 5-HT1F was “significant component of 5-HT1F activity”.
Turning to `CN(C)C1CCc2[nH]c3ccc(O)cc3c2C1` (centres unmarked) [Compound V, 6-hydroxy-3-dimethylamino-1,2,3,4-tetrahydrocarbazole], the EC50 was more than 8.03 µM in the data set on rabbit saphenous vein (setting [6]) and more than 100 µM with rabbit saphenous vein (Oryctolagus cuniculus, read-out: Rabbit Saphenous Vein Contraction EC50). The Emax in the data set on rabbit saphenous vein (setting [9]) is 12.4%. The ED50 in [1] (setting [8]) was 8.7e-06 µmol/kg. For the same compound, the “Inhibition of Protein Extravasation i.v. ID50” value in data set [1] (setting [10]) is 8.7e-09 mmol/kg.
On to `CN1C[C@H](C(=O)N[C@]2(C)O[C@@]3(O)[C@@H]4CCCN4C(=O)[C@H](Cc4ccccc4)N3C2=O)C[C@@H]2c3cccc4[nH]cc(c34)C[C@H]21` [Dihydroergotamine], for which the ED50 in [1] (setting [8]) was found to be 2.43e-05 µmol/kg. Also, the “inhibition of neuronal protein extravasation (in words)” value in [1] (i.v.) is listed as “fully effective inhibitor”. The “ratio of extravasation in the dura, stimulated side compared to unstimulated side” value in data set [1] (i.v.; saline controls approximately 2.0 in rats, 1.8 in guinea pigs) stood at 1.0. Moreover, the vasoconstrictor activity entry with vasoconstriction is reported as “potent vasoconstrictor”. Further, the “agonist character at the 5-HT1F receptor in the cAMP assay” value at 5-HT1F receptor [5] is “partial agonist”. The “cAMP assay Emax at the 5-HT1F receptor” value at 5-HT1F receptor [5] (percent of maximal effect of serotonin, forskolin 10 μM) is 49.5%.
As for `NCCc1c[nH]c2ccc(O)cc12` [serotonin], at 5-HT1F receptor [5], the “agonist character at the 5-HT1F receptor in the cAMP assay” value is on record as “maximal effect”.
